Reference: ChEMBL document CHEMBL3774377 (Bioorg Med Chem, 2016)

Experiments:
[1] = molecular target: T1, Sodium- and chloride-dependent GABA transporter 1 (Mus musculus, UniProt P31648); assay: Displacement of NO 711 from mouse GAT1 expressed in HEK293 cell membranes after 40 mins by LC-ESI-MS-MS-based MS binding assay
[2] = molecular target: T1, Sodium- and chloride-dependent GABA transporter 1; assay: Inhibition of mouse GAT1 expressed in HEK293 cells assessed as [3H]GABA uptake preincubated for 25 mins followed by [3H]GABA/unlabeled GABA addition measured after 4 mins by liquid scintillation counting analysis; format: cell-based
[3] = system: Sodium- and chloride-dependent betaine transporter (Mus musculus); assay: Inhibition of mouse GAT2 expressed in HEK293 cells assessed as remaining [3H]GABA uptake at 100 uM preincubated for 25 mins followed by [3H]GABA/unlabeled GABA addition measured after 10 mins by liquid scintillation counting analysis
[4] = system: Sodium- and chloride-dependent GABA transporter 2 (Mus musculus); assay: Inhibition of mouse GAT3 expressed in HEK293 cells assessed as remaining [3H]GABA uptake at 100 uM preincubated for 25 mins followed by [3H]GABA/unlabeled GABA addition measured after 4 mins by liquid scintillation counting analysis
[5] = molecular target: T2, GABA transporter 4 (Mus musculus) (UniProt P31650); assay: Inhibition of mouse GAT4 expressed in HEK293 cells assessed as remaining [3H]GABA uptake at 100 uM preincubated for 25 mins followed by [3H]GABA/unlabeled GABA addition measured after 4 mins by liquid scintillation counting analysis; format: cell-based
T2 sequence (whole entry): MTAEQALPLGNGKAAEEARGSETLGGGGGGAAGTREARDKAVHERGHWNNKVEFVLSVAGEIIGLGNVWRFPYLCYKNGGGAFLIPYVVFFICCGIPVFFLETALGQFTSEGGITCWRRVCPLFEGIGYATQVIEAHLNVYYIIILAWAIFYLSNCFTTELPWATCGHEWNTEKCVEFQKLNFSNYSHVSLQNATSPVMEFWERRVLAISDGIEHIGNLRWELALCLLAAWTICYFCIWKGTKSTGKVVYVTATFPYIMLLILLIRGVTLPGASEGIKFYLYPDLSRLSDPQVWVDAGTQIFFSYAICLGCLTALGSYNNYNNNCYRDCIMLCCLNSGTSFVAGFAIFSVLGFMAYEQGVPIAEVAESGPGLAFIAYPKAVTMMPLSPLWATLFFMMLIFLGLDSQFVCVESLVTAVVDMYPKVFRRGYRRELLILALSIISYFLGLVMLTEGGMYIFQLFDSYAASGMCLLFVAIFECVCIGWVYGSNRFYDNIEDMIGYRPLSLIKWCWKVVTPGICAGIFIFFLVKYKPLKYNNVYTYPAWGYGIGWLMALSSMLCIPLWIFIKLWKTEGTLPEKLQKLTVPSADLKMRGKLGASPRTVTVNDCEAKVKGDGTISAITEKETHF

[6] = molecular target: Sodium- and chloride-dependent GABA transporter 1 (Mus musculus) (UniProt P31648); assay: Displacement of NO 711 from mouse GAT1 expressed in HEK293 cell membranes assessed as remaining marker bound to protein at 100 uM after 40 mins by LC-ESI-MS-MS-based MS binding assay
[7] = molecular target: Sodium- and chloride-dependent GABA transporter 1 (Mus musculus) (UniProt P31648); assay: Inhibition of mouse GAT1 expressed in HEK293 cells assessed as remaining [3H]GABA uptake at 100 uM preincubated for 25 mins followed by [3H]GABA/unlabeled GABA addition measured after 4 mins by liquid scintillation counting analysis; format: cell-based
[8] = molecular target: Sodium- and chloride-dependent GABA transporter 1 (Mus musculus) (UniProt P31648); assay: Inhibition of mouse GAT1 expressed in HEK293 cells assessed as remaining [3H]GABA uptake at 1 mM preincubated for 25 mins followed by [3H]GABA/unlabeled GABA addition measured after 4 mins by liquid scintillation counting analysis; format: cell-based
[9] = molecular target: T2, GABA transporter 4 (Mus musculus); assay: Inhibition of mouse GAT4 expressed in HEK293 cells assessed as remaining [3H]GABA uptake at 1 mM preincubated for 25 mins followed by [3H]GABA/unlabeled GABA addition measured after 4 mins by liquid scintillation counting analysis; format: cell-based
[10] = molecular target: Sodium- and chloride-dependent GABA transporter 1 (Mus musculus) (UniProt P31648); assay: Displacement of NO 711 from mouse GAT1 expressed in HEK293 cell membranes assessed as remaining marker bound to protein at 1 mM after 40 mins by LC-ESI-MS-MS-based MS binding assay
[11] = molecular target: T3, GABA transporter 4 (Mus musculus, UniProt P31650); assay: Inhibition of mouse GAT4 expressed in HEK293 cells assessed as [3H]GABA uptake preincubated for 25 mins followed by [3H]GABA/unlabeled GABA addition measured after 4 mins by liquid scintillation counting analysis; format: cell-based
T3 sequence (P31650 whole entry): T2 sequence (whole entry)

[12] = system: Sodium- and chloride-dependent GABA transporter 2 (Mus musculus); assay: Inhibition of mouse GAT3 expressed in HEK293 cells assessed as remaining [3H]GABA uptake at 1 mM preincubated for 25 mins followed by [3H]GABA/unlabeled GABA addition measured after 4 mins by liquid scintillation counting analysis

| Ki [1] [µM] | IC50 [2] [µM] | Activity [3] [%] | Activity [4] [%] | Activity [5] [%] | Activity [6] [%] | Activity [7] [%] | Compound | further results |
| --- | --- | --- | --- | --- | --- | --- | --- | --- |
| 35.4 | – | – | – | – | – | – | O=C(O)[C@H]1CNCC[C@H]1CCCC/C=C/c1ccccc1Cc1ccccc1 (racemic) | – |
| 14.3 | 26.5 | 108 | 67.9 | 75.5 | – | – | CN1CC[C@H](CC/C=C/c2ccccc2-c2ccccc2)[C@@H](C(=O)O)C1 (racemic) | – |
| – | – | – | – | – | 78.5 | 60.5 | O=C(O)[C@H]1CNCC[C@@H]1CCCC/C=C/c1ccccc1Cc1ccccc1 (racemic) | – |
| – | – | 68.4 | 81.9 | 81.1 | 86.5 | 79.8 | CN1CC[C@H](CCC#Cc2ccccc2-c2ccccc2)[C@@H](C(=O)O)C1 (racemic) | – |
| – | – | – | – | – | – | – | CCCC[C@H]1CCNC[C@@H]1C(=O)O (racemic) | Activity [8]: 69.9%; Activity [9]: 87.5%; Activity [10]: 91.7% |
| 33.2 | 60.5 | 88.7 | 53.5 | 84.7 | – | – | O=C(O)[C@H]1CNCC[C@@H]1CC/C=C/c1ccccc1-c1ccccc1 (racemic) | – |
| 72.4 | 34.8 | 90.8 | 53.8 | 57.9 | – | – | CN1CC[C@H](CCC/C=C/c2ccccc2-c2ccccc2)[C@@H](C(=O)O)C1 (racemic) | – |
| – | – | 85.1 | 78.1 | 92.4 | 79 | 86.3 | O=C(O)[C@H]1CNCC[C@@H]1CC/C=C/c1ccccc1Cc1ccccc1 (racemic) | – |
| 28.6 | 25.9 | – | – | 50 | – | – | CN1CC[C@H](CCCC#Cc2ccccc2Cc2ccccc2)[C@@H](C(=O)O)C1 (racemic) | – |
| – | 1150 | – | – | – | – | – | C#CCCC[C@H]1CCNC[C@@H]1C(=O)O (racemic) | Activity [9]: 84.9%; Activity [10]: 87.2% |
| 68.1 | 64.1 | – | – | – | – | – | O=C(O)[C@H]1CNCC[C@H]1CCC/C=C/c1ccccc1Cc1ccccc1 (racemic) | – |
| – | – | 81.2 | 55.3 | 63.5 | 76.2 | 68.6 | O=C(O)[C@H]1CNCC[C@H]1CC/C=C/c1ccccc1-c1ccccc1 (racemic) | – |
| – | 66.8 | 64.8 | 54.5 | 52.5 | 45.9 | – | O=C(O)[C@H]1CNCC[C@H]1CCC/C=C/c1ccccc1-c1ccccc1 (racemic) | – |
| – | – | 52 | 58.2 | 86.9 | 83.9 | 60.4 | O=C(O)[C@H]1CNCC[C@H]1CCC#Cc1ccccc1-c1ccccc1 (racemic) | – |
| – | – | 67.7 | 72.9 | 77.8 | 83.1 | 80 | O=C(O)[C@H]1CNCC[C@H]1CCCC#Cc1ccccc1-c1ccccc1 (racemic) | – |
| 31 | 40.8 | 51.1 | – | – | – | – | O=C(O)[C@H]1CNCC[C@H]1CCCC#Cc1ccccc1Cc1ccccc1 (racemic) | IC50 [11]: 62.5 µM |
| 27.4 | 24.5 | – | – | – | – | – | O=C(O)[C@H]1CNCC[C@H]1CCCC/C=C/c1ccccc1-c1ccccc1 (racemic) | IC50 [11]: 36.7 µM |
| – | – | 98.3 | 75.7 | 76.1 | 86.6 | 73.9 | O=C(O)[C@H]1CNCC[C@@H]1CCC/C=C/c1ccccc1-c1ccccc1 (racemic) | – |
| 71.8 | 75.5 | 63.7 | – | – | – | – | O=C(O)[C@H]1CNCC[C@@H]1CCCC/C=C/c1ccccc1-c1ccccc1 (racemic) | IC50 [11]: 83.6 µM |
| – | – | – | – | – | – | – | C#CCC[C@H]1CCNC[C@@H]1C(=O)O (racemic) | Activity [9]: 90.4%; Activity [10]: 88.9% |
| 77.1 | 107 | – | – | – | – | – | O=C(O)[C@H]1CNCC[C@@H]1CCC/C=C/c1ccccc1Cc1ccccc1 (racemic) | – |
| – | 37.4 | 51.9 | 56.4 | 69.4 | 64.4 | – | CN1CC[C@H](CCCC#Cc2ccccc2-c2ccccc2)[C@@H](C(=O)O)C1 (racemic) | – |
| 39.9 | 24.7 | – | – | 45.7 | – | – | CN1CC[C@H](CCC/C=C/c2ccccc2Cc2ccccc2)[C@@H](C(=O)O)C1 (racemic) | – |
| 818 | 740 | – | – | – | – | – | C=CCCCC[C@H]1CCNC[C@@H]1C(=O)O (racemic) | Activity [9]: 89.9% |
| – | – | 81.2 | – | – | – | – | C=CCC[C@H]1CCNC[C@@H]1C(=O)O (racemic) | Activity [8]: 63.6%; Activity [12]: 73.1%; Activity [9]: 86.1%; Activity [10]: 79.9% |
| – | – | 68.4 | 53.9 | 63.9 | 82.7 | 70.1 | O=C(O)[C@H]1CNCC[C@H]1CCC#Cc1ccccc1Cc1ccccc1 (racemic) | – |
| 39.8 | 36.7 | – | – | – | – | – | CN1CC[C@H](CC/C=C/c2ccccc2Cc2ccccc2)[C@@H](C(=O)O)C1 (racemic) | – |
| – | – | 57.5 | 71 | 84.4 | 73.9 | 60.9 | CN1CC[C@H](CCC#Cc2ccccc2Cc2ccccc2)[C@@H](C(=O)O)C1 (racemic) | – |
| – | – | 62.5 | – | 49.7 | 79.6 | 43.9 | O=C(O)[C@H]1CNCC[C@H]1CC/C=C/c1ccccc1Cc1ccccc1 (racemic) | – |
| 0.186 | – | – | – | – | – | – | O=C(O)C1CCCN(CCC=C(c2ccccc2)c2ccccc2)C1 (configuration not stated) | – |
